Assay results published in PubChem BioAssay AID1259408 (Genetic Toxicology Data Bank (GENE-TOX), 2018).
Calls of active or inactive are those of the source. How the calls were made is not given here.

Test system: GENE-TOX genotoxicity assays, various organisms and cells
Experiment: GENE-TOX mutagenicity studies
Conditions: for call: Assay Type: In vivo carcinogenicity studies
[1] = Species/Cell Type: Human lymphocytes, Assay Type: Sister-chromatid exchange (SCE) in vitro, Assay Code: SCLT, Evaluation Type: Evaluation B (Post-1980)
[2] = Species/Cell Type: Human, Assay Type: Sister-chromatid exchange (SCE) in vitro, Assay Code: SC1T, Evaluation Type: Evaluation B (Post-1980)
[3] = Species/Cell Type: Salmonella typhimurium (one or more of the five standard strains: TA98, TA100, TA1535, TA1537, and TA1538), Assay Type: Histidine reverse gene mutation, Ames assay, Assay Code: SAL-, Evaluation Type: Evaluation A (Pre-1980)
[4] = Species/Cell Type: Drosophila melanogaster, Assay Type: Sex-linked recessive lethal gene mutation, Assay Code: SRL+, Evaluation Type: Evaluation A (Pre-1980)
[5] = Species/Cell Type: Saccharomyces cerevisiae, Assay Type: Mitotic recombination or gene conversion, Assay Code: YEC+, Evaluation Type: Evaluation A (Pre-1980)
[6] = Species/Cell Type: Mammalian polychromatic erythrocytes, Assay Type: Micronucleus test, chromosome aberrations, Assay Code: MNTT, Evaluation Type: Evaluation A (Pre-1980)
[7] = Species/Cell Type: Mouse, Sex: Male, Assay Type: Sperm morphology, Assay Code: SPI-, Evaluation Type: Evaluation A (Pre-1980)

`Cc1cccc(O)c1C` was tested, and the mutagenic call [1] was “no conclusion” and the mutagenic call [2] was “no conclusion”.
For `Cc1cc(=O)n(-c2ccccc2)n1C`, the mutagenic call [3] was “inactive; negative”.
`O=NN(CCCl)C(=O)NCCCCCCNC(=O)N(CCCl)N=O` was tested, and the mutagenic call [4] was “active; positive” and the mutagenic call [5] was “active; positive”.
With `c1cc2ccc3cccc4ccc(c1)c2c34` the mutagenic call (Species/Cell Type: Chinese hamster lung (V79) cells, Assay Type: Forward gene mutation at the HPRT or ouabain locus, Assay Code: V79-*, Activation: With metabolic activation, Evaluation Type: Evaluation A (Pre-1980)) was “inactive; negative”, the mutagenic call (Species/Cell Type: Chinese hamster lung (V79) cells, Assay Type: Forward gene mutation, host-mediated assay, Assay Code: HMG-, Evaluation Type: Evaluation A (Pre-1980)) was “inactive; negative” and the mutagenic call (Species/Cell Type: Fischer rat embryo (RLV/1706) cells, Assay Type: Cell transformation, viral enhanced, Assay Code: CTR-, Evaluation Type: Evaluation A (Pre-1980)) was “inactive; negative”. The mutagenic call (Species/Cell Type: Human diploid fibroblasts, Assay Type: Unscheduled DNA synthesis (UDS) in vitro, DNA effects, Assay Code: UDH-*, Activation: With metabolic activation, Evaluation Type: Evaluation A (Pre-1980)) was “inactive; negative”, the mutagenic call [6] was “no conclusion” and the mutagenic call (Species/Cell Type: Mouse (BALB/c-3T3) cells, Assay Type: Cell transformation, Assay Code: CTB-, Evaluation Type: Evaluation A (Pre-1980)) was “inactive; negative”. For the same molecule, the mutagenic call (Species/Cell Type: Mouse embryo (AKR/ME) cells, Assay Type: Cell transformation, Assay Code: CTK-, Evaluation Type: Evaluation A (Pre-1980)) was “inactive; negative”, the mutagenic call [7] was “inactive; negative” and the mutagenic call (Species/Cell Type: Nonhuman, Assay Type: Chromosome aberrations in vitro, Assay Code: CY&-, Evaluation Type: Evaluation A (Pre-1980)) was “inactive; negative”. For the same molecule, the call (Species/Cell Type: Nonhuman, Assay Code: CCGT, Evaluation Type: Evaluation A (Pre-1980)) was “no conclusion”, the mutagenic call (Species/Cell Type: Nonhuman, Assay Type: Sister-chromatid exchange (SCE) in vitro, Assay Code: SC2+, Evaluation Type: Evaluation B (Post-1980)) was “active; positive” and the mutagenic call (Species/Cell Type: Nonhuman, Assay Type: Sister-chromatid exchange (SCE) in vitro, Assay Code: SC2T, Evaluation Type: Evaluation A (Pre-1980)) was “no conclusion”. For the same molecule, the mutagenic call (Species/Cell Type: Nonhuman, Assay Type: Sister-chromatid exchange (SCE) in vivo, Assay Code: SC3-, Evaluation Type: Evaluation A (Pre-1980)) was “inactive; negative”, the mutagenic call [3] was “inactive; negative” and the mutagenic call (Species/Cell Type: Syrian hamster embryo (SHE) cells, Assay Type: Cell transformation, clonal assay, Assay Code: CTC-, Evaluation Type: Evaluation A (Pre-1980)) was “inactive; negative”. For the same molecule, the mutagenic call (Species/Cell Type: Tradescantia species, Assay Type: Gene mutation, Assay Code: TRM+D, Dose Response: With dose response, Evaluation Type: Evaluation A (Pre-1980)) was “active; positive”.
With `O=C(O)C(=O)c1ccc(Cl)cc1` the mutagenic call (Species/Cell Type: Nonhuman, Assay Type: Sister-chromatid exchange (SCE) in vitro, Assay Code: SC2-, Evaluation Type: Evaluation B (Post-1980)) was “inactive; negative”.
With `C#C[C@]1(O)CC[C@H]2[C@@H]3CCc4cc(OC)ccc4[C@H]3CC[C@@]21C` (tested in a mixture with another compound) the mutagenic call (Species/Cell Type: Human, Sex: Male, Assay Type: Sperm morphology, Assay Code: SPH+, Evaluation Type: Evaluation A (Pre-1980)) was “active; positive”.
With `O=S(=O)(O)CCS` the mutagenic call [1] was “no conclusion” and the mutagenic call [2] was “no conclusion”.
With `O=C1CCO1` the mutagenic call (Species/Cell Type: Allium cepa, Assay Type: Chromosome aberrations, Assay Code: ALC+, Evaluation Type: Evaluation A (Pre-1980)) was “active; positive”, the mutagenic call (Species/Cell Type: Chinese hamster ovary (CHO) cells, Assay Type: Forward gene mutation at the HPRT locus, Assay Code: CHO+, Evaluation Type: Evaluation B (Post-1980)) was “active; positive” and the mutagenic call [4] was “active; positive”. The mutagenic call (Species/Cell Type: Drosophila melanogaster, Sex: Male, Assay Type: Heritable translocation test, chromosome aberrations, Assay Code: DHT+, Evaluation Type: Evaluation A (Pre-1980)) was “active; positive”, the mutagenic call (Species/Cell Type: Escherichia coli polA (W3119 vs P3478), Assay Type: Rec-assay, DNA effects (bacterial DNA repair), Assay Code: RE1+, Evaluation Type: Evaluation A (Pre-1980)) was “active; positive” and the mutagenic call (Species/Cell Type: Human diploid fibroblasts, Assay Type: Unscheduled DNA synthesis (UDS) in vitro, DNA effects, Assay Code: UDH+, Evaluation Type: Evaluation A (Pre-1980)) was “active; positive”. The mutagenic call [6] was “no conclusion”, the mutagenic call (Species/Cell Type: Mouse lymphoma (L5178Y) cells, Assay Type: Forward gene mutation at the thymidine kinase (TK) locus, chromosome aberrations, Assay Code: L51+, Evaluation Type: Evaluation A (Pre-1980)) was “active; positive” and the mutagenic call [7] was “inactive; negative”. For the same molecule, the mutagenic call (Species/Cell Type: Neurospora crassa, Assay Type: Forward gene mutation, Assay Code: NEF+, Evaluation Type: Evaluation A (Pre-1980)) was “active; positive”, the mutagenic call (Species/Cell Type: Neurospora crassa, Assay Type: Reverse gene mutation, Assay Code: NER+, Evaluation Type: Evaluation A (Pre-1980)) was “active; positive” and the call (Species/Cell Type: Nonhuman, Assay Code: CCG+, Evaluation Type: Evaluation A (Pre-1980)) was “active; positive”. For the same molecule, the mutagenic call (Species/Cell Type: Nonhuman, Assay Type: Sister-chromatid exchange (SCE) in vitro, Assay Code: SC2+D, Dose Response: With dose response, Evaluation Type: Evaluation A (Pre-1980)) was “active; positive”, the mutagenic call [5] was “active; positive” and the mutagenic call (Species/Cell Type: Saccharomyces cerevisiae, Assay Type: Mitotic recombination or gene conversion, Assay Code: YEH+, Evaluation Type: Evaluation A (Pre-1980)) was “active; positive”. For the same molecule, the mutagenic call (Species/Cell Type: Saccharomyces cerevisiae, Assay Type: Reverse gene mutation, Assay Code: YER+, Evaluation Type: Evaluation A (Pre-1980)) was “active; positive”, the mutagenic call (Species/Cell Type: Salmonella typhimurium (one or more of the five standard strains: TA98, TA100, TA1535, TA1537, and TA1538), Assay Type: Histidine reverse gene mutation, Ames assay, Assay Code: SAL+, Evaluation Type: Evaluation A (Pre-1980)) was “active; positive” and the mutagenic call (Species/Cell Type: Salmonella typhimurium, Assay Type: Forward and reverse gene mutation, host-mediated assay, Assay Code: HMA+, Evaluation Type: Evaluation A (Pre-1980)) was “active; positive”. For the same molecule, the mutagenic call (Species/Cell Type: Syrian hamster embryo (SA7/SHE) cells, Assay Type: Cell transformation, viral enhanced, Assay Code: CT7+, Evaluation Type: Evaluation A (Pre-1980)) was “active; positive”, the mutagenic call (Species/Cell Type: Syrian hamster embryo (SHE) cells, Assay Type: Cell transformation, focus assay, Assay Code: CTF+, Evaluation Type: Evaluation A (Pre-1980)) was “active; positive” and the mutagenic call (Species/Cell Type: Vicia faba, Assay Type: Chromosome aberrations, Assay Code: VIC+, Evaluation Type: Evaluation A (Pre-1980)) was “active; positive”.
